{"source": "paper PMC2672171", "about": "“In Vivo Delta Opioid Receptor Internalization Controls Behavioral Effects of Agonists” (PLoS ONE, 2009)", "key": {"[1]": {"target": "T1, DOR-eGFP (delta opioid receptor-eGFP) (Mus musculus, UniProt P32300)", "T1 construct": "gene Oprd1; Full-length mouse delta receptor with C-terminal eGFP, knocked in at the native gene (exon 3, 5' of the stop codon); whole brain membranes of knock-in mice", "T1 sequence (P32300 whole entry)": "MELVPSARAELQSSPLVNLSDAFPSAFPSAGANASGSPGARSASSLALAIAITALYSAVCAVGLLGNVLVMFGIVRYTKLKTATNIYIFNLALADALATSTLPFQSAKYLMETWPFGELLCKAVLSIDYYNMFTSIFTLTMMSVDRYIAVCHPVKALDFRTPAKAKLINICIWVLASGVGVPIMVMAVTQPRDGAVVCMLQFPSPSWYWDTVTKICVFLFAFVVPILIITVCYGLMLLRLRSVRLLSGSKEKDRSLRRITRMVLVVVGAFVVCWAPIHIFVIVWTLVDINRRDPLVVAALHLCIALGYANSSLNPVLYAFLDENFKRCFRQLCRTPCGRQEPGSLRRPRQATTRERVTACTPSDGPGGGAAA", "assay": "[…]GTPgammaS binding, whole brain membranes", "format": "biochemical", "conditions": "agonist; 30 µM GDP, 0.1 nM [35S]GTPgammaS, 3 mM MgCl2, 100 mM NaCl, pH 7.4, 1 h, 25 °C; read-out: G protein coupling ([^35S]GTPγS binding) / EC50 (nM) / Striatum / E1/2 (min)"}, "[2]": {"target": "T1, DOR-eGFP (delta opioid receptor-eGFP)", "assay": "[3H]naltrindole competition binding, whole brain membranes", "conditions": "1 nM [3H]naltrindole, 1 h, 25 °C; read-out: Affinity (Competition Binding) / Ki (nM) / Concentration", "source_text": "[3H]naltrindole competition binding, whole brain membranes on DOR-eGFP (delta opioid receptor-eGFP)"}}, "data": [{"compound": "CCN(CC)C(=O)c1ccc(C(=C2CCNCC2)c2ccccc2)cc1", "note": "[ARM390, N,N-diethyl-4-(phenyl-piperidin-4-ylidenemethyl)-benzamide]", "values": [{"measurement": "EC50", "setting": "[1]", "result": "169 ± 9.5", "unit": "nM"}, {"measurement": "Ki", "setting": "[2]", "result": "2.3 ± 0.3", "unit": "nM"}]}]}
